# Measured values published in paper PMC3726336, “Product inhibition of cellulases studied with ^14C-labeled cellulose substrates” (Biotechnology for Biofuels, 2013).
# Columns and labels:
# [1] = molecular target: T1, TrCel6A (Trichoderma reesei, UniProt P07987); test: Cellobiose inhibition of synergistic hydrolysis of 14C-BC by TrCel6A and EG TrCel5A; format: biochemical
# T1 construct: TrCel6A was purified from the culture filtrate of Tr QM 9414 as described previously; made in house; host or cells: Trichoderma reesei QM 9414 culture filtrate (native producer)
# Excerpt: Here, we characterized the cellobiose and glucose inhibition of TrCel6A and its thermophilic counterpart, CtCel6A [9, 63]. First, the cellobiose inhibition of the synergistic hydrolysis of ^14C-BC by TrCel6A and TrCel5A was studied (Figure 7A). As TrCel6A was less sensitive to cellobiose inhibition than TrCel7A, the contribution of the cellobiose released during hydrolysis was not significant, and an average (DCB/DCB=0) over all time points was used in plotting (DCB/DCB=0) versus [cellobiose] (Figure 7D). No significant systematic variation of DCB/DCB=0 depending on hydrolysis time was observed. As in the case of GH7 CBHs, the IC50 value was found using Equations 5 and 6. Because the IC50 value for synergistic hydrolysis (Table 3) was of the same order as the apparent Ki value reported for TrCel5A [31], we further tested the inhibition of individual TrCel6A. BC is not a good substrate for TrCel6A, but its acid-treated derivative, BMCC, is readily degraded by the enzyme. Therefore, we prepared ^14C-BMCC by the heterogeneous acid hydrolysis of ^14C-BC. Without supplied cellobiose, both enzymes had similar activity with the ^14C-BMCC substrate, but CtCel6A was somewhat more resistant to cellobiose inhibition (Figure 7D, Table 3). The IC50 value for TrCel6A by itself was similar to that found for the synergistic hydrolysis. […]
# [2] = system: TrCel12A; design: method as in PMID 15129433; conditions: 3H-reduced amorphous cellulose, cellobiose 1 mM – 100 mM; cited from earlier work
# [3] = molecular target: T2, TrCel7A (Trichoderma reesei, UniProt P62694); test: Cellobiose inhibition of MUL hydrolysis by TrCel7A; format: biochemical; conditions: Ki for cellobiose, MUL substrate (5 μM)
# T2 construct: TrCel7A was purified from the culture filtrate of Tr QM 9414 as described previously; made in house; host or cells: Trichoderma reesei QM 9414 culture filtrate (native producer)
# Excerpt: The cellobiose inhibition of GH7 CBHs is most often studied on low-Mw model substrates. However, it has been shown that the inhibition of CBHs acting on low-Mw substrates appears to be much stronger than that on cellulose substrates. The Ki values for cellobiose inhibition of GH7 CBHs measured on low-Mw substrates are in the micromolar range [44, 51, 52], whereas those measured on cellulose are in the low- to high-millimolar range [28, 31, 32]. […] Unfortunately, the inhibition of this enzyme on cellulose has not been studied. We also studied the cellobiose inhibition of GH7 CBHs acting on MUL. The initial rates of MUL hydrolysis measured in the presence and absence of added cellobiose were first analyzed according to Equation 1, and the IC50 values were found using Equation 2. […] The inhibition of MUL hydrolysis is attributable to the binding of cellobiose to the product sites (+1/+2) of TrCel7A [52]. […]
# For the inhibition of enzyme acting on the low-Mw substrate, the initial rates of the hydrolysis of MUL in the presence and absence of added cellobiose were followed. […] Reactions were stopped by the addition of NH3 (final concentration 0.1 M), and the released 4-methylumbelliferone was quantified by fluorescence using excitation and emission wavelengths of 360 nm and 450 nm, respectively.
# [4] = molecular target: T3, TrCel7B (Trichoderma reesei, UniProt P07981); design: method as in PMID 15129433; conditions: 3H-reduced amorphous cellulose substrate, read-out: apparent Ki value; cited from earlier work
# T3 construct: TrCel7B, TrCel5A, and TrCel12A were purified from the culture filtrate of Tr QM 9414; made in house; host or cells: Trichoderma reesei QM 9414 culture filtrate (native producer)
# T3 sequence (P07981 23-459): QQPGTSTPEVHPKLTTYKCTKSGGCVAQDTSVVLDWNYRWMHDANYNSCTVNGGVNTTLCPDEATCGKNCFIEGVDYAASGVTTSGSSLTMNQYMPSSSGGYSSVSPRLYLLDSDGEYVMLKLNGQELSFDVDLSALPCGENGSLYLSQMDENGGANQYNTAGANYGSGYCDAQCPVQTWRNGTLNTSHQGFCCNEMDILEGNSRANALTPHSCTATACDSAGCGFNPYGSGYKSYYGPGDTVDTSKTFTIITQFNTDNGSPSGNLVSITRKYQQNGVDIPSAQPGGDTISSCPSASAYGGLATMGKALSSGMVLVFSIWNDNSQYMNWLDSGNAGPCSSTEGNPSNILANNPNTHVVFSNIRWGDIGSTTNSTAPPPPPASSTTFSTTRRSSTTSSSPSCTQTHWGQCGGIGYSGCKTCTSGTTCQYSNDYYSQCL
# T2 sequence (P62694 18-513): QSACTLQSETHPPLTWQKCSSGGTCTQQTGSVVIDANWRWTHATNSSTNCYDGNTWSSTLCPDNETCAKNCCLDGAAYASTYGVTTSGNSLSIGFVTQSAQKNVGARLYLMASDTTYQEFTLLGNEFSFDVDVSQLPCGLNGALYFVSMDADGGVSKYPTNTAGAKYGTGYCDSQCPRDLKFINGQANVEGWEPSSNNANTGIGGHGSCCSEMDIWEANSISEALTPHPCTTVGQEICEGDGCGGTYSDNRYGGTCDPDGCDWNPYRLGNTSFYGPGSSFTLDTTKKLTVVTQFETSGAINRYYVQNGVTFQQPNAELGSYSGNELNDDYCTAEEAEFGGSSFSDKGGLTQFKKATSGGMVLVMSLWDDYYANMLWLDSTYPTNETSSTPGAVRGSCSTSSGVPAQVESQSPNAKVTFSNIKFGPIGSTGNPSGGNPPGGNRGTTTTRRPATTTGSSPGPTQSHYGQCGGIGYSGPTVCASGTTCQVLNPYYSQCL
# T1 sequence (P07987 25-471): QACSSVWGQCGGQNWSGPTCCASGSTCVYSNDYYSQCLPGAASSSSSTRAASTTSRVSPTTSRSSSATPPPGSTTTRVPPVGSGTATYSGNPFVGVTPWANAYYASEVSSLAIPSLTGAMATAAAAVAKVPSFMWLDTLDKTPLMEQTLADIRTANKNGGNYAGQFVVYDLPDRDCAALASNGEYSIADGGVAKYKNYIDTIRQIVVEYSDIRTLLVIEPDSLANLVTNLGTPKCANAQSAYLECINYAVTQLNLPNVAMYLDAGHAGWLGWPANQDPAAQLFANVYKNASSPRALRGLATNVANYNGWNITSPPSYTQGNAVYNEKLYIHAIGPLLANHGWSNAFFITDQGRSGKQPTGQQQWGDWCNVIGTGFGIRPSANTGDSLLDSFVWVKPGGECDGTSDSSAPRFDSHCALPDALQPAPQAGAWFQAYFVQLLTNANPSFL
smiles,measurement,setting,value
"O=C[C@H](O)[C@@H](O)[C@H](O[C@@H]1O[C@H](CO)[C@@H](O)[C@H](O)[C@H]1O)[C@H](O)CO [cellobiose, Cellobiose]",IC50,[1],16 ± 0.5 mM
same,Effect of cellobiose on activity,[2],apparent activation
same,Ki,[3]; 35°C,0.04 mM
same,Ki,[3]; 50°C,0.124 mM
same,Ki,[4],11 ± 3 mM
